EC50 data for 34 compounds are collected here from US8633182B2, “Indanyloxyphenylcyclopropanecarboxylic acids” (Boehringer Ingelheim International GmbH, priority 2012, dated 2014).

The assay has as its target human GPR40 receptor (Homo sapiens, UniProt O14842). Kind of assay: IP1 accumulation measurements using the IPOne assay system in 1321N1 cells stably expressing human GPR40 receptor. The assay is classed as cell-based. The following applies: IP1 accumulation (HTRF), 1321N1 cells stably expressing human GPR40, 1 hour stimulation at 37° C. On the procedure: IP1 accumulation measurements using the IPOne assay system—1321N1 cells stably expressing human GPR40 receptor (Euroscreen, Belgium) are seeded 24 h before the assay in black clear-bottom collagen-coated or white 384-well plates in culture medium containing 10% FCS, 1% Na-Pyruvate and 400 μg/mL G418. IP1 is assayed according to the Manufacturer's description (Cisbio Bioassays, France). In brief, the assay is started by substitution of the culture medium by stimulation buffer (Hepes 10 mM, CaCl2 1 mM, MgCl2 0.5 mM, KCl 4.2 mM, NaCl 146 mM and glucose 5.5 mM, pH 7.4) without LiCl or with […]. Cells are stimulated for 1 hour at 37° C., 5 or 10% CO2 by addition of the compounds that are diluted in stimulation buffer containing LiCl yielding a final LiCl concentration of 50 mM. Assays are stopped by adding HTRF-conjugates (IP1-d2 and Anti-IP1 cryptate Tb) and lysis buffer, provided by the manufacturer. After an incubation time of 1 hour at room temperature plates are measured using an EnVision™, Perkin Elmer. The obtained fluorescence ratios at […] are then used to calculate the pEC50 values using GraphPad Prism 5 (Graphpad Software Inc, USA) or Assay Explorer 3.3 Software (Accelrys, Inc.) by interpolation using an IP1 reference curve and subsequent sigmoidal curve fitting allowing for a variable hill slope.
A general note: Time-resolved FRET reads energy transfer from a long-lived donor to a nearby acceptor.

In general, EC50 refers to the midpoint of the concentration-response curve. The low end stands for an effect from little substance, the high end for a need for much substance.

Sequence of human GPR40 receptor (O14842 whole entry): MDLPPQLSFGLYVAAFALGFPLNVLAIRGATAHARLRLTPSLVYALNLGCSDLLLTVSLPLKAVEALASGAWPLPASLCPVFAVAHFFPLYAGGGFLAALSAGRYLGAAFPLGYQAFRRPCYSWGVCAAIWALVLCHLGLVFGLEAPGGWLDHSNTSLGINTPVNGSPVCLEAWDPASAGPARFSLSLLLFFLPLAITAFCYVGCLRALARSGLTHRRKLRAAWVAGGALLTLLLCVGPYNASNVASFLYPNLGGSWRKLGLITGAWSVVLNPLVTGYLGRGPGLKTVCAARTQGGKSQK

The compound `Cc1cc(OC[C@H](C)CS(C)(=O)=O)cc(C)c1-c1ccc(F)c2c1CC[C@H]2Oc1ccc([C@H]2C[C@@H]2C(=O)O)cc1` [Example 28, (1S,2S)-2-(4-{(R)-7-Fluoro-4-[4-((S)-3-methanesulfonyl-2-methyl-propoxy)-2,6-dimethyl-phenyl]-indan-1-yloxy}-phenyl)-cyclopropanecarboxylic acid] showed an EC50 of 6 nM.

`Cc1cc(OC[C@@H](C)CS(C)(=O)=O)cc(C)c1-c1ccc(F)c2c1CC[C@H]2Oc1ccc([C@H]2C[C@@H]2C(=O)O)cc1` [Example 29, (1S,2S)-2-(4-{(R)-7-Fluoro-4-[4-((R)-3-methanesulfonyl-2-methyl-propoxy)-2,6-dimethyl-phenyl]-indan-1-yloxy}-phenyl)-cyclopropanecarboxylic acid]: the response was half-maximal at 7 nM (EC50).

Compound `Cc1cc(OC(C)(C)C(N)=O)cc(C)c1-c1ccc(F)c2c1CC[C@H]2Oc1ccc([C@H]2C[C@@H]2C(=O)O)cc1` [Example 30, (1S,2S)-2-(4-{(R)-4-[4-(1-Carbamoyl-1-methyl-ethoxy)-2,6-dimethyl-phenyl]-7-fluoro-indan-1-yloxy}-phenyl)-cyclopropanecarboxylic acid] gave a half-maximal effective concentration (EC50) of 18 nM.

In turn, `Cc1cc(OCCCCS(C)(=O)=O)cc(C)c1-c1ccc(F)c2c1CC[C@H]2Oc1ccc([C@H]2C[C@@H]2C(=O)O)cc1` [Example 31, (1S,2S)-2-(4-{(R)-7-Fluoro-4-[4-(4-methanesulfonyl-butoxy)-2,6-dimethyl-phenyl]-indan-1-yloxy}-phenyl)-cyclopropanecarboxylic acid] displayed an EC50 of 6 nM.

With `Cc1cc(OCC2(CO)CC2)cc(C)c1-c1ccc(F)c2c1CC[C@H]2Oc1ccc([C@H]2C[C@@H]2C(=O)O)cc1` [Example 32], the concentration giving a half-maximal response (EC50) turned out to be 4 nM.

With `Cc1cc(OCCC(C)(C)O)cc(C)c1-c1c(C#N)ccc2c1CC[C@H]2Oc1ccc([C@H]2C[C@@H]2C(=O)O)cc1` [Example 34], a half-maximal response (EC50) required 8 nM.

`Cc1cc(OCC2CCS(=O)(=O)CC2)cc(C)c1-c1c(C#N)ccc2c1CC[C@H]2Oc1ccc([C@H]2C[C@@H]2C(=O)O)cc1` [Example 35] yielded an EC50 of 28 nM.

The compound `Cc1cc(O[C@@H]2CCN(S(C)(=O)=O)C2)cc(C)c1-c1c(C#N)ccc2c1CC[C@H]2Oc1ccc([C@H]2C[C@@H]2C(=O)O)cc1` [Example 37] came in with an EC50 of 32 nM.

Take `Cc1cc(OC2CCOCC2)cc(C)c1-c1c(C#N)ccc2c1CC[C@H]2Oc1ccc([C@H]2C[C@@H]2C(=O)O)cc1` [Example 38, (1S,2S)-2-(4-{(R)-5-Cyano-4-[2,6-dimethyl-4-(tetrahydro-pyran-4-yloxy)-phenyl]-indan-1-yloxy}-phenyl)-cyclopropane-carboxylic acid]: the concentration giving a half-maximal response (EC50) is 40 nM.

Take `Cc1cc(OCC2(O)CCS(=O)(=O)CC2)cc(C)c1-c1ccc(F)c2c1CC[C@H]2Oc1ccc([C@H]2C[C@@H]2C(=O)O)cc1` [Example 39]: the EC50 stood at 6 nM.

In turn, `Cn1ncc2cccc(-c3ccc(F)c4c3CC[C@H]4Oc3ccc([C@H]4C[C@@H]4C(=O)O)cc3)c21` [Example 40] had an EC50 of 2 nM.

Regarding `Cc1cc(-c2nc(C)n(CC(C)(C)O)n2)cc(C)c1-c1ccc(F)c2c1CC[C@H]2Oc1ccc([C@H]2C[C@@H]2C(=O)O)cc1` [Example 41, (1S,2S)-2-[4-((R)-7-Fluoro-4-{4-[1-(2-hydroxy-2-methyl-propyl)-5-methyl-1H-[1,2,4]triazol-3-yl]-2,6-dimethyl-phenyl}-indan-1-yloxy)-phenyl]-cyclopropanecarboxylic acid], the half-maximal effective concentration (EC50) turned out to be 2 nM.

Consider `Cc1cc(-c2nc(C)n(C)n2)cc(C)c1-c1ccc(F)c2c1CC[C@H]2Oc1ccc([C@H]2C[C@@H]2C(=O)O)cc1` [Example 42, (1S,2S)-2-(4-{(R)-4-[4-(1,5-Dimethyl-1H-[1,2,4]triazol-3-yl)-2,6-dimethyl-phenyl]-7-fluoro-indan-1-yloxy}-phenyl)-cyclopropanecarboxylic acid], for which the concentration giving a half-maximal response (EC50) was found to be 1 nM.

`Cc1cc(-c2nnn(CC(C)(C)O)n2)cc(C)c1-c1ccc(F)c2c1CC[C@H]2Oc1ccc([C@H]2C[C@@H]2C(=O)O)cc1` [Example 43, (1S,2S)-2-[4-((R)-7-Fluoro-4-{4-[2-(2-hydroxy-2-methyl-propyl)-2H-tetrazol-5-yl]-2,6-dimethyl-phenyl}-indan-1-yloxy)-phenyl]-cyclopropanecarboxylic acid] gave an EC50 of 3 nM.

Consider `Cc1cc(-c2nnnn2C)cc(C)c1-c1ccc(F)c2c1CC[C@H]2Oc1ccc([C@H]2C[C@@H]2C(=O)O)cc1` [Example 44], for which a half-maximal effect (EC50) was put at 12 nM.

Compound `Cc1cc(-c2nnn(C)n2)cc(C)c1-c1ccc(F)c2c1CC[C@H]2Oc1ccc([C@H]2C[C@@H]2C(=O)O)cc1` [Example 45] showed an EC50 of 2 nM.

`O=C(O)[C@H]1C[C@@H]1c1ccc(O[C@@H]2CCc3c(-c4cncc5ccccc45)ccc(F)c32)cc1` [Example 46, (1S,2S)-2-(4-((1R)-7-fluoro-4-(isoquinolin-4-yl)-2,3-dihydro-1H-inden-1-yloxy)phenyl)cyclo-propanecarboxylic acid] came in with an EC50 of 6 nM.

Consider `N#Cc1sccc1-c1ccc(F)c2c1CC[C@H]2Oc1ccc([C@H]2C[C@@H]2C(=O)O)cc1` [Example 47], for which the 50% effective concentration (EC50) turned out to be 191 nM.

For the compound `O=C(O)[C@H]1C[C@@H]1c1ccc(O[C@@H]2CCc3c(-c4cccc5ncccc45)ccc(F)c32)cc1` [Example 48, (1S,2S)-2-(4-((1R)-7-fluoro-4-(quinolin-5-yl)-2,3-dihydro-1H-inden-1-yloxy)phenyl)cyclo-propanecarboxylic acid], the half-maximal effective concentration (EC50) is 6 nM.

Turning to `O=C(O)[C@H]1C[C@@H]1c1ccc(O[C@@H]2CCc3c(-c4cccc5cnccc45)ccc(F)c32)cc1` [Example 49, (1S,2S)-2-(4-((1R)-7-fluoro-4-(isoquinolin-5-yl)-2,3-dihydro-1H-inden-1-yloxy)phenyl)cyclo-propanecarboxylic acid], it took 5 nM to reach a half-maximal effect (EC50).

As to `O=C(O)[C@H]1C[C@@H]1c1ccc(O[C@@H]2CCc3c(-c4ccnc5ccccc45)ccc(F)c32)cc1` [Example 50], the half-maximal effective concentration (EC50) is 11 nM.

In turn, `COc1cccnc1-c1ccc(F)c2c1CC[C@H]2Oc1ccc([C@H]2C[C@@H]2C(=O)O)cc1` [Example 51] had an EC50 of 569 nM.

Turning to `O=C(O)[C@H]1C[C@@H]1c1ccc(O[C@@H]2CCc3c(-c4ccncc4C(F)(F)F)ccc(F)c32)cc1` [Example 52, (1S,2S)-2-(4-((1R)-7-fluoro-4-(3-(trifluoromethyl)pyridin-4-yl)-2,3-dihydro-1H-inden-1-yloxy)phenyl)cyclopropanecarb oxylic acid], the EC50 was determined as 38 nM.

Take `Cn1ccc2c(-c3ccc(F)c4c3CC[C@H]4Oc3ccc([C@H]4C[C@@H]4C(=O)O)cc3)cccc21` [Example 53]: it took 13 nM to reach a half-maximal effect (EC50).

In turn, `Cc1c(C#N)cccc1-c1ccc(F)c2c1CC[C@H]2Oc1ccc([C@H]2C[C@@H]2C(=O)O)cc1` [Example 54] gave an EC50 of 5 nM.

The compound `N#Cc1ncccc1-c1ccc(F)c2c1CC[C@H]2Oc1ccc([C@H]2C[C@@H]2C(=O)O)cc1` [Example 55] registered an EC50 of 75 nM.

`Cc1nn(C)cc1-c1ccc(F)c2c1CC[C@H]2Oc1ccc([C@H]2C[C@@H]2C(=O)O)cc1` [Example 56, (1S,2S)-2-(4-((1R)-4-(1,3-dimethyl-1H-pyrazol-4-yl)-7-fluoro-2,3-dihydro-1H-inden-1-yloxy)phenyl)cyclopropanecarb oxylic acid] returned an EC50 of 224 nM.

Turning to `Cc1ncc(-c2ccc(F)c3c2CC[C@H]3Oc2ccc([C@H]3C[C@@H]3C(=O)O)cc2)n1C` [Example 57, (1S,2S)-2-(4-((1R)-4-(1,2-dimethyl-1H-imidazol-5-yl)-7-fluoro-2,3-dihydro-1H-inden-1-yloxy)phenyl)cyclopropanecarb oxylic acid], the concentration for a half-maximal effect (EC50) was found to be 1400 nM.

Regarding `Cc1ccc2c(cnn2C)c1-c1ccc(F)c2c1CC[C@H]2Oc1ccc([C@H]2C[C@@H]2C(=O)O)cc1` [Example 58, (1S,2S)-2-(4-((1R)-4-(1,5-dimethyl-1H-indazol-4-yl)-7-fluoro-2,3-dihydro-1H-inden-1-yloxy)phenyl)cyclopropanecarb oxylic acid], it took 4 nM to reach a half-maximal effect (EC50).

Turning to `Cn1ncc2c(-c3ccc(F)c4c3CC[C@H]4Oc3ccc([C@H]4C[C@@H]4C(=O)O)cc3)cccc21` [Example 59], a half-maximal effect (EC50) was put at 17 nM.

`Cn1ccc2cccc(-c3ccc(F)c4c3CC[C@H]4Oc3ccc([C@H]4C[C@@H]4C(=O)O)cc3)c21` [Example 60]: a half-maximal response (EC50) required 3 nM.

With `O=C(O)[C@H]1C[C@@H]1c1ccc(O[C@@H]2CCc3c(-c4ccccc4-c4cocn4)ccc(F)c32)cc1` [Example 61, (1S,2S)-2-(4-((1R)-7-fluoro-4-(2-(oxazol-4-yl)phenyl)-2,3-dihydro-1H-inden-1-yloxy)-phenyl)cyclopropanecarboxylic acid], the EC50 was determined as 28 nM.

For the compound `O=C(O)[C@H]1C[C@@H]1c1ccc(O[C@@H]2CCc3c(-c4ccccc4-c4cnco4)ccc(F)c32)cc1` [Example 62], the 50% effective concentration (EC50) is 29 nM.

For `O=C(O)C1CC1c1ccc(OC2CCc3c2ccc(C(F)(F)F)c3-c2ccc(OCC3(O)CCOCC3)cc2)cc1` (stereo not shown) [Example 63], the 50% effective concentration (EC50) was found to be 7 nM.
